# Results published in EP4623908A1, “USE OF (-)-EPIGALLOCATECHIN GALLATE COMPOUND” (CF Pharmtech, Inc., priority 2022, dated 2024).
# What was measured:
# [1] = tested on: Bleomycin-Induced Pulmonary Fibrosis in Mice; test: Bleomycin-induced pulmonary fibrosis model in mice (Example 4); type: in vivo, C57BL/6J mice; conditions: for Hydroxyproline Content: mouse lung tissue, Mean±SEM
# Experimental: A total of 56 male C57BL/6J mice, SPF grade, aged 7-10 weeks, with a body weight range of 20-35g, were purchased from SPF (Beijing) Biotechnology Co., Ltd..
# Injectable Bleomycin (BLM, 15mg/vial, batch number 20067411): Hanhui Pharmaceutical Co., Ltd. • Solvent 1: Components include purified water, citric acid, and sodium citrate, a transparent, clear liquid. • Solvent 2: Sodium chloride injection (batch number K21080307), purchased from Hanhui Pharmaceuticals Co., Ltd (formerly Hisun-Pfizer Pharmaceuticals Co., Ltd.). • Hydroxyproline (HYP) assay kit: Purchased from Merck Sigma-Aldrich.
# The mice were randomly divided into the following groups, with 8 mice in each group: • Sham operation group (normal control group), • Pulmonary fibrosis model group, • Oral gavage group, • Tracheal Nebulization groups 1-4.
# On Day 1 (D1), the normal control group mice were administered solvent 2 (sodium chloride injection, 1 mL/kg) via tracheal nebulization. All other groups were administered bleomycin (2 mg/kg, 1 mL/kg) via tracheal nebulization in the morning and afternoon to construct the pulmonary fibrosis model.
# The oral gavage dose for mice was 100 mg/kg (calculated based on the oral dose of 60 mg/kg for rats, according to FDA guidelines, and converted for equivalent oral dosage in mice by body surface area). The tracheal nebulization doses were 0.2 mg/kg, 0.4 mg/kg, 0.8 mg/kg, and 1.6 mg/kg. Both the normal control group and the pulmonary fibrosis model group were administered solvent 1 via tracheal nebulization once a day, starting on D10 post-model induction.
# Mice from each group were anesthetized on Day 22 via intraperitoneal injection of chloral hydrate (50 mg/mL, 0.1 mL/10g) and sacrificed by abdominal aorta blood collection. All animals underwent dissection, and lung tissues were preserved. The total lung weight (including animals that died unexpectedly or were euthanized) was measured. The left lung was excised and stored at below -60°C for hydroxyproline content testing. The remaining right lung tissue and bronchioles were fixed in 10% neutral-buffered formalin and processed for routine histology: paraffin embedding, sectioning, HE staining, and Masson staining.
# Lung coefficient = lung weight (mg)/body weight (g). [formula] Early-stage inflammation with infiltration of inflammatory cells, followed by the proliferation of fibroblasts and excessive collagen deposition, leads to an increase in lung coefficient. Thus, the lung coefficient serves as an indirect indicator of the inflammation and fibrosis degree in mice.
# Mice were weighed prior to grouping, on the model induction day, after the first drug administration, and every 3 days thereafter. […] Changes in body weight reflect the effect of the drug administration. Statistical analysis was performed using two-way ANOVA and Tukey's multiple comparison test.
# Lung tissue inflammation, fibroproliferation, and other pathological changes were evaluated by optical microscopy on HE-stained sections. Masson staining was used to assess the degree of fibrosis in lung tissue. Standardized terminology was applied to classify fibrosis, inflammatory cell infiltration, alveolar hemorrhage, dilation, epithelial hyperplasia, and fibrous exudate using a 4-point scale (mild, moderate, severe, and very severe).
# Hydroxyproline content in lung tissue was measured according to the instructions of the assay kit.
# Statistical tests commonly used in the field, such as Student's t-test, chi-square test, Mann-Whitney U test, Kruskal-Wallis test (H test), Jonckheere-Terpstra test, and Wilcoxon test, were performed. Statistical analysis was done using SPSS (13.0) software. Results are presented as mean ± standard error. Overall differences were evaluated by One-Way ANOVA for homogeneity of variance, followed by Dunnett's test for inter-group comparisons. When normality tests failed, Kruskal-Wallis test was used for inter-group comparisons. Two-Way ANOVA and Tukey's test were used for multiple comparisons between groups. […]
# [2] = cited from earlier work
# [3] = 26 IPF patients; oral co-administration; cited from earlier work
# [4] = Pharmacokinetics of low-dose tracheal nebulization and oral gavage in rat plasma and lungs (Example 3); type: in vivo, rats; conditions: for Lung AUC0-t / Lung Cmax: rat lung tissue, average
# Experimental: As described in Example 1, the administration methods of oral gavage or tracheal nebulization of different doses of EGCG solution in rats were used to study the pharmacokinetic parameters of the drug in the lungs. The tracheal nebulization doses were 0.05 mg/kg, 0.1 mg/kg, 0.2 mg/kg, and 0.4 mg/kg, with 6-8 rats per dose group. The oral gavage dose was 60 mg/kg, with 6 rats.
# The blood sampling method and sample processing were as described in Example 2. The blood collection time points for this experiment were 5 minutes, 2 hours, 6 hours, 8 hours, 10 hours, and 16 hours post-administration, with approximately […] of whole blood collected at each time point.
# [5] = Tracheal Nebulization (inh) 0.05 mg/kg
# [6] = Tracheal Nebulization (inh) 0.1 mg/kg
# [7] = Tracheal Nebulization (inh) 0.2 mg/kg
# [8] = Tracheal Nebulization (inh) 0.4 mg/kg
# [9] = rat, after oral gavage 60 mg/kg
smiles,measurement,setting,value
"O=C(O[C@@H]1Cc2c(O)cc(O)cc2O[C@@H]1c1cc(O)c(O)c(O)c1)c1cc(O)c(O)c(O)c1 [EGCG, (-)-Epigallocatechin gallate]",fibrosis score vs model group,"[1]; aerosol dose 0.4mg/kg or higher, P < 0.05",significant reduction in pulmonary fibrosis
same,inhibiting alveolar expansion,"[1]; all tracheal nebulization groups (0.2, 0.4, 0.8, 1.6mg/kg), 0.4mg/kg most effective",significant differences compared to the model group
same,inhibiting inflammatory cell infiltration,"[1]; all tracheal nebulization groups, 0.4mg/kg best (P < 0.05)",reduced inflammatory cell infiltration
same,fibrosis in the lungs (Masson's staining),"[1]; inhaling 0.8mg/kg and 1.6mg/kg, D22",almost close to the level of the healthy control group
same,Hydroxyproline Content,"[1]; D22, Inh. 0.2mg/kg once a day from D10",2.807 ± 0.3982 µg/µL
same,Hydroxyproline Content,"[1]; D22, Inh. 0.4mg/kg once a day from D10",2.046 ± 0.690 µg/µL
same,Hydroxyproline Content,"[1]; D22, Inh. 0.8mg/kg once a day from D10",1.033 ± 0.1476 µg/µL
same,Hydroxyproline Content,"[1]; D22, Inh. 1.6 mg/kg once a day from D10",1.67 ± 0.1888 µg/µL
same,Hydroxyproline Content,"[1]; D22, P.O 100mg/kg once a day from D10",1.928 ± 0.1326 µg/µL
same,collagen deposition (Masson's staining) vs model group,"[1]; oral administration 100 mg/kg, difference not significant, D22",decreased slightly
same,lung tissue histopathology (H&E staining),"[1]; oral administration 100 mg/kg, no significant difference vs model group, D22",slight improvement in lung tissue morphology
same,inhibiting inflammatory cell infiltration,[1]; oral administration (oral gavage) 100 mg/kg,no anti-inflammatory effect
same,alveolar inflammation scores vs model group,[1]; oral gavage 100 mg/kg,no significant difference
same,body weight,[1]; oral gavage 100 mg/kg,weight gain in the oral gavage group was slower
same,fibrosis score vs model group,[1]; oral gavage 100 mg/kg,did not show a significant difference
same,lung coefficient vs model group,[1]; oral gavage 100 mg/kg,did not show a significant difference
same,alveolar inflammation scores vs model group,[1]; tracheal nebulization,significantly suppressed the further development of alveolar inflammation
same,inhibiting alveolar hemorrhage,[1]; tracheal nebulization 0.2mg/kg and 0.4mg/kg,significantly better than the oral gavage group
same,lung coefficient vs model group,"[1]; tracheal nebulization 0.2mg/kg and 0.4mg/kg, P < 0.01, P < 0.001",significantly reduced
same,body weight,"[1]; tracheal nebulization 0.2mg/kg and 0.4mg/kg, significant vs model group",returned to baseline levels by Day 22
same,hydroxyproline content in lung tissue (in words),"[1]; tracheal nebulization 0.2mg/kg, 0.4mg/kg, and 0.8mg/kg, D22",dose-dependently reduced
same,inhibiting alveolar fibrous exudates,[1]; tracheal nebulization 1.6mg/kg,significant differences compared to the model group
same,lung tissue histopathology (H&E staining),"[1]; tracheal nebulization, best at 0.4mg/kg and 0.8mg/kg, D22",reduced alveolar interstitial proliferation
same,collagen deposition (Masson's staining) vs model group,"[1]; tracheal nebulization, dose-response, especially 0.4mg/kg and above, D22",significantly reduced collagen deposition
same,serum transaminases,[2]; daily oral intake at doses equal to or higher than 800 mg,significantly increased serum transaminases
same,body weight of patients,[2]; oral,significantly reduce the body weight
same,reduction of the plasma exposure of Nintedanib on co-administration,[3],about 21%
same,Cmax,"[4]; lung, inhaled or intranasal, rat, inhalation dose above 0.2 mg/kg, read-out: maximum drug concentration (Cmax) in the lungs",> 1000 ng/mL
same,Lung AUC0-t,[4]; [5],284.7 ng·h/mL
same,Lung Cmax,[4]; [5],79.6 ng/mL
same,Lung AUC0-t,[4]; [6],1031.4 ng·h/mL
same,Lung Cmax,[4]; [6],220.4 ng/mL
same,Lung AUC0-t,[4]; [7],3082.7 ng·h/mL
same,Lung Cmax,[4]; [7],1038.0 ng/mL
same,Lung AUC0-t,[4]; [8],11764.1 ng·h/mL
same,Lung Cmax,[4]; [8],3180.0 ng/mL
same,Lung AUC0-t,[4]; oral gavage (po) 60 mg/kg,226.4 ng·h/mL
same,Lung Cmax,[4]; oral gavage (po) 60 mg/kg,43.4 ng/mL
same,lung concentration,[4]; [9],less than 100 ng/mL
same,plasma drug concentrations,[4]; [9],less than 100 ng/mL
same,inhalation dose as fraction of the oral dose at comparable lung drug concentration,"[4]; rat, inh 0.05 mg/kg vs oral gavage 60 mg/kg",1/1200
same,peak concentration in the lungs of the oral administration,"[4]; rat, oral gavage 60 mg/kg",32 ng/mL
same,drug concentration in the lungs,"[4]; rat, tracheal nebulization of 0.1, 0.2, or 0.4 mg/kg, for up to 16 hours",greater than 50 ng/mL
